Reference: patent US20170088520A1, “DEUBIQUITINASE INHIBITORS” (PharmAkea, Inc., priority 2014, published 2017)

Experiments:
[1] = system: MM.1S myeloma tumor cells; assay: In vivo tumor growth assay (xenograft model); conditions: SCID Beige mice injected with MM.1S myeloma tumor cells; 15 mpk three times per week
Experimental: Example B-3: In Vivo Tumor Growth Assay
A xenograft model is used to test efficacy of compounds in inhibiting tumor growth. Briefly, 1×10^6-2×10^7 tumor cell suspensions (Z138, A375, MM.1S, VCaP) are injected subcutaneously into the flank regions of mice (SCID, NSG, nude) in an equal volume of matrigel. Tumor volumes are measured using calipers and when the tumor volumes are ˜100 mm^3, test compound is administered every 1-3 days by oral gavage or by injection (intraperitoneal, intravenous, subcutaneous) until tumor volumes of the vehicle treated animals are ˜1000-2000 mm^3. Inhibition of primary tumor growth is evident as a significant decrease in tumor volume relative to the vehicle treated mice.
Following the above protocol using SCID Beige mice injected with MM.1S myeloma tumor cells and dosing with Compound 74 at 15 mpk three times per week, an approximately 50% reduction in tumor volume was observed

[2] = system: Mcl-1 expression in cells (NCI-H929, Z138, MM.1S, A-375); assay: Analysis of Mcl-1 expression by Western blotting; format: cell-based; conditions: compound tested at 5 μM; Western blot
Outline: (§1)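 NCI-H929, Z138, MM.1S and A-375 cells were treated with compounds at 5 μM, and lysates were Western blotted with anti-Mcl-1 and anti-PARP antibodies, quantified by infrared fluorescence. Activity is a significant drop in Mcl-1 and the appearance of cleaved PARP, each relative to vehicle-treated cells.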

[3] = system: PARP cleavage in cells (NCI-H929, Z138, MM.1S, A-375); assay: Analysis of PARP cleavage by Western blotting; format: cell-based; conditions: compound tested at 5 μM; Western blot
Outline: as §1

[4] = molecular target: T1, DUB activity in cells (NCI-H929, Z138, MM.1S, A375) (Homo sapiens, UniProt Q93008); assay: HA-Ubiquitin-Vinylsulfone (HA-Ub-VS) cell labeling assay; format: cell-based; conditions: compound tested at 5 μM; HA-Ub-VS labeling of USP9x in cells
T1 construct: endogenous in cells; host or cells: NCI-H929, Z138, MM.1S, A375
Outline: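 NCI-H929, Z138, MM.1S or A375 cells (1–2×10^6) treated 2–6 h at 37 °C with compound in 0.5% DMSO, here 5 μM. Lysates labeled with HA-Ub-VS for 15–60 min at 37 °C. Labeled DUBs resolved by SDS-PAGE and quantified by anti-HA and anti-β-actin immunoblot with infrared detection.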

T1 sequence (Q93008 whole entry): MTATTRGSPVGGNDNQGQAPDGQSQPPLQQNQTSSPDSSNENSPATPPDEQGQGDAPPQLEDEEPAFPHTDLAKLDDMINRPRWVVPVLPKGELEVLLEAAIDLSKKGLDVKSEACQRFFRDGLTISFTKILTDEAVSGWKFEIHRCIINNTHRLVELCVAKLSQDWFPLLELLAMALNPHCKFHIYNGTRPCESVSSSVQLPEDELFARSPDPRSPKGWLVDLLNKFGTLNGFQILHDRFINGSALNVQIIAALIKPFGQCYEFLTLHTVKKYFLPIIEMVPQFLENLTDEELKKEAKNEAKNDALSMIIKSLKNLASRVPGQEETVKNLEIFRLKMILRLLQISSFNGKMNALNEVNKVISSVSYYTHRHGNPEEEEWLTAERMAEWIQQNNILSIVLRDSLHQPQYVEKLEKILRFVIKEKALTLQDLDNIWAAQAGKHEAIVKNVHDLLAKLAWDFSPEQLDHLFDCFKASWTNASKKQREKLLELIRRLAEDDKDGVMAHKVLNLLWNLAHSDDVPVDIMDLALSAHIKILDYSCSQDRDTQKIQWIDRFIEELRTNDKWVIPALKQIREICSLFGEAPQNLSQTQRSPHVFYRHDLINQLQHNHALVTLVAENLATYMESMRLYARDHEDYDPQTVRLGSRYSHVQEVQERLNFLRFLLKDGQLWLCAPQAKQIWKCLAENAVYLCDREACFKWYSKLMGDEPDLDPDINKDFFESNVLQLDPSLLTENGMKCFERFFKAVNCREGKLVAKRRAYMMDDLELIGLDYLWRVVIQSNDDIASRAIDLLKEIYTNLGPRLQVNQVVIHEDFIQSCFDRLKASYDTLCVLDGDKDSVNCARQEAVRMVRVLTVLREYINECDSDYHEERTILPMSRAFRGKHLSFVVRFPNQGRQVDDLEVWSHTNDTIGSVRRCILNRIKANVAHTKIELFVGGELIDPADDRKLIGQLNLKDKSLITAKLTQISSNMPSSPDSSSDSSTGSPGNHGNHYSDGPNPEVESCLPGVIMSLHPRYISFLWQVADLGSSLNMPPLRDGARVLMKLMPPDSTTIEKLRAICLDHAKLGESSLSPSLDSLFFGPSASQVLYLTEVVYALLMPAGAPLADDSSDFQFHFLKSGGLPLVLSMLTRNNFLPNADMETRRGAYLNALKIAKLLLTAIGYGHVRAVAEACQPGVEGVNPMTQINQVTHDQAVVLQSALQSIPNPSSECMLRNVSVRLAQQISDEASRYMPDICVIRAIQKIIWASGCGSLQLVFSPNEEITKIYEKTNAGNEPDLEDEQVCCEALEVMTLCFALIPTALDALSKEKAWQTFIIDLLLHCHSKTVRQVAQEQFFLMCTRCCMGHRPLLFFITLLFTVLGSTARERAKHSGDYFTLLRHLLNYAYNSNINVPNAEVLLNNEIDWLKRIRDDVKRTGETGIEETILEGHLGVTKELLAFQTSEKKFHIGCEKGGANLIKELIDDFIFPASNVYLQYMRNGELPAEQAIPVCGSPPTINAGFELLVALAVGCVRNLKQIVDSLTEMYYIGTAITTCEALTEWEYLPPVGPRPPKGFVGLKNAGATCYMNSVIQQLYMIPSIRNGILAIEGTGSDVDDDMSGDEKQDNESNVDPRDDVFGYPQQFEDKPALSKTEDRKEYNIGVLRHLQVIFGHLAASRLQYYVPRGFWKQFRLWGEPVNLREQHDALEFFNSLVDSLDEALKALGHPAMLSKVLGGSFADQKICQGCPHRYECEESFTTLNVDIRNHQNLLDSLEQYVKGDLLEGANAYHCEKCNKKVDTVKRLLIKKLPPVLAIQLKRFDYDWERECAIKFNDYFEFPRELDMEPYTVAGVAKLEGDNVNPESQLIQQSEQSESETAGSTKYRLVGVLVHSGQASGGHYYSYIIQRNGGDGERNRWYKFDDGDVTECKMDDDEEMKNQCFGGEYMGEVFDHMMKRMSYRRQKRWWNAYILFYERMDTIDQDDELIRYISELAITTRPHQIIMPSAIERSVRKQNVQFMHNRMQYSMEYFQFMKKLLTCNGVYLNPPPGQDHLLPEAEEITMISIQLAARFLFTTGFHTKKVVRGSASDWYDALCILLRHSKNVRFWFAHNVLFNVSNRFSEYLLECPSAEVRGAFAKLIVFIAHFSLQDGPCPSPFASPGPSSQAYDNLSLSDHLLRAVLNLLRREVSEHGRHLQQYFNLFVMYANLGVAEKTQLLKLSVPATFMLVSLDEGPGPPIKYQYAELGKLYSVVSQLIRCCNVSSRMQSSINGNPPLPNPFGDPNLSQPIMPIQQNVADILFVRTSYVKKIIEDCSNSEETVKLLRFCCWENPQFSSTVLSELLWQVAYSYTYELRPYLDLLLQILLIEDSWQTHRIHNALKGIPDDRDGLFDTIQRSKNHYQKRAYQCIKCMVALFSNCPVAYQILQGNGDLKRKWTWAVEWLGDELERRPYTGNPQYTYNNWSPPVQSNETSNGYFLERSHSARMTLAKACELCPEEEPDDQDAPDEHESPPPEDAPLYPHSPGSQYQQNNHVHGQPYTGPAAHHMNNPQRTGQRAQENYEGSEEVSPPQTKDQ

N#C/C(=C\c1cccc(Br)n1)C(=O)NC1(c2ccc(-c3cccc(C(=O)O)c3)cc2)CCCC1 [Compound 74, (E)-4′-(1-(3-(6-bromopyridin-2-yl)-2-cyanoacrylamido)cyclopentyl)-[1,1′-biphenyl]-3-carboxylic acid]
reduction in tumor volume [1]: approximately 50% | inhibition at 5 µM [2]: 50 to 75% | PARP cleavage % Inhibition [3]: A (A is ≧75% inhibition) | inhibition at 5 µM [4]: 50 to 75%
